Literature values, collected in patent publication US20250249020A1, “COLLOIDALLY STABLE HEME-ALBUMIN COMPLEXES AND METHODS OF MAKING AND USING THEREOF” (Ohio State Innovation Foundation, priority 2022, published 2025).

Target: Hpx
Conditions: heme binding, background

C=CC1=C(C)c2cc3[n-]c(cc4[n-]c(cc5nc(cc1n2)C(C)=C5C=C)c(C)c4CCC(=O)O)c(CCC(=O)O)c3C.[Fe+2] [heme]
Kd: ~10 nM
